Experiments:
[1] = test system: AMBEL (Ragweed, Common); assay: Postemergence herbicidal evaluation; format: in vivo, Ambrosia artemisifolia; settings: postemergence
In short: (§1)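 Scores (0–9) reflect plant stand, vigor, malformation, size, chlorosis and general appearance relative to control, read 4 to 5 weeks after treatment and averaged where tests were repeated. Application: about 0.0156–0.500 kg/ha sprayed at 40 psi onto two-week seedlings.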

[2] = test system: ECHCG (Barnyardgrass); assay: Postemergence herbicidal evaluation; format: in vivo, Echinochloa crus-galli; settings: postemergence
In short: as §1

[3] = test system: CHEAL (Lambsquarters, Common); assay: Postemergence herbicidal evaluation; format: in vivo, Chenopodium album; settings: postemergence
In short: as §1

[4] = test system: ORYSAT (Rice, Tebonnet); assay: Postemergence herbicidal evaluation; format: in vivo, Oryza sativa, (L.) Tebonnet; settings: postemergence
In short: as §1

[5] = test system: CYPIR (Rice Flatsedge); assay: Preemergence weed control under flooded paddy conditions; format: in vivo, Cyperus iria; settings: rated 3-4 weeks after treatment
In short: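 Flooded-pot preemergence screen with silt loam and seeds in the upper 0.5 cm. Dose about 0.0313 to 0.500 kg/ha, delivered into flood water; visual 0-9 score after 3 to 4 weeks.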

[6] = test system: ZEAMX (Corn, Field); assay: Preemergence herbicidal evaluation; format: in vivo, Zea mays; settings: rated 4-5 weeks after treatment
In short: (§2)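 Seeds were mixed with potting soil and planted on about one inch of soil, then sprayed with test compound in aqueous acetone at about 0.0156 to 0.500 kg per hectare. Plants grew under standard greenhouse care and were visually rated 0-9 against untreated controls 4-5 weeks post-treatment.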

[7] = test system: CASOB (Sicklepod); assay: Postemergence herbicidal evaluation; format: in vivo, Cassia obtusifolia; settings: postemergence
In short: as §1

[8] = test system: CYPSE (Flatsedge); assay: Preemergence weed control under flooded paddy conditions; format: in vivo, Cyperus serotinus; settings: rated 3-4 weeks after treatment
In short: (§3)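 Silt loam, seeds in top 0.5 cm; flood held 1.5-3 cm; test cpd as acetone/water 50/50 into flood water, ~0.0313-0.500 kg/ha a.i.; greenhouse 3-4 wk; visual 0-9 score vs control.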

[9] = test system: GALAP (Galium); assay: Postemergence herbicidal evaluation; format: in vivo, Galium aparine; settings: postemergence
In short: as §1

[10] = test system: GLXMAW (Soybean, Williams); assay: Postemergence herbicidal evaluation; format: in vivo, Glycine max, (L.) Merr. cv Williams; settings: postemergence
In short: as §1

[11] = test system: CASOB (Sicklepod); assay: Preemergence herbicidal evaluation; format: in vivo, Cassia obtusifolia; settings: rated 4-5 weeks after treatment
In short: as §2

[12] = test system: GALAP (Galium); assay: Preemergence herbicidal evaluation; format: in vivo, Galium aparine; settings: rated 4-5 weeks after treatment
In short: as §2

[13] = test system: SAGPY (Arrowhead (Pygmaea)); assay: Preemergence weed control under flooded paddy conditions; format: in vivo, Sagittaria pygmaea; settings: rated 3-4 weeks after treatment
In short: as §3

[14] = test system: SETVI (Foxtail, Green); assay: Postemergence herbicidal evaluation; format: in vivo, Setaria viridis; settings: postemergence
In short: as §1

## CCOC(=O)CN1C(=O)C(OC)SC1=Nc1cc(-n2c(=O)cc(C(F)(F)F)n(C)c2=O)c(F)cc1Cl (centres unmarked) [Compound 160, Ethyl 2-{{2-chloro-5-[3,6-dihydro-3-methyl-2,6-dioxo-4-(trifluoromethyl)-1(2H)-pyrimidinyl]-4-fluorophenyl}imino}-5-methoxy-4-oxo-3-thiazolidineacetate]
[1]; rate 0.0156 kg/ha
  Herbicidal rating AMBEL: 7.0
[1]; rate 0.0313 kg/ha
  Herbicidal rating AMBEL: 7.0
[1]; rate 0.0625 kg/ha
  Herbicidal rating AMBEL: 9.0
[1]; rate 0.1250 kg/ha
  Herbicidal rating AMBEL: 9.0
[2]; rate 0.0156 kg/ha
  Herbicidal rating ECHCG: 3.0
[2]; rate 0.0313 kg/ha
  Herbicidal rating ECHCG: 5.0
[2]; rate 0.0625 kg/ha
  Herbicidal rating ECHCG: 4.0
[2]; rate 0.1250 kg/ha
  Herbicidal rating ECHCG: 7.0
[3]; rate 0.0156 kg/ha
  Herbicidal rating CHEAL: 2.0
[3]; rate 0.0313 kg/ha
  Herbicidal rating CHEAL: 6.0
[3]; rate 0.0625 kg/ha
  Herbicidal rating CHEAL: 9.0
[3]; rate 0.1250 kg/ha
  Herbicidal rating CHEAL: 9.0
[4]; rate 0.0156 kg/ha
  Herbicidal rating ORYSAT: 2.0
[4]; rate 0.0313 kg/ha
  Herbicidal rating ORYSAT: 3.5
[4]; rate 0.0625 kg/ha
  Herbicidal rating ORYSAT: 4.5
[4]; rate 0.1250 kg/ha
  Herbicidal rating ORYSAT: 4.5
[5]; 0.0313 kg/ha
  herbicidal effect rating, CYPIR: 0.0
[5]; 0.0625 kg/ha
  herbicidal effect rating, CYPIR: 3.0
[5]; 0.1250 kg/ha
  herbicidal effect rating, CYPIR: 6.0
[5]; 0.2500 kg/ha
  herbicidal effect rating, CYPIR: 9.0
[6]; 0.0156 kg/ha
  Preemergence herbicidal rating ZEAMX: 0.0
[6]; 0.0313 kg/ha
  Preemergence herbicidal rating ZEAMX: 0.0
[6]; 0.0625 kg/ha
  Preemergence herbicidal rating ZEAMX: 1.0
[6]; 0.1250 kg/ha
  Preemergence herbicidal rating ZEAMX: 2.0
[6]; 0.2500 kg/ha
  Preemergence herbicidal rating ZEAMX: 5.0
[6]; 0.5000 kg/ha
  Preemergence herbicidal rating ZEAMX: 8.0
[7]; rate 0.0156 kg/ha
  Herbicidal rating CASOB: 0.0
[7]; rate 0.0313 kg/ha
  Herbicidal rating CASOB: 0.0
[7]; rate 0.0625 kg/ha
  Herbicidal rating CASOB: 1.0
[7]; rate 0.1250 kg/ha
  Herbicidal rating CASOB: 4.0
[8]; 0.0313 kg/ha
  herbicidal effect rating, CYPSE: 3.0
[8]; 0.0625 kg/ha
  herbicidal effect rating, CYPSE: 3.0
[8]; 0.1250 kg/ha
  herbicidal effect rating, CYPSE: 3.0
[8]; 0.2500 kg/ha
  herbicidal effect rating, CYPSE: 3.0
[9]; rate 0.0156 kg/ha
  Herbicidal rating GALAP: 0.0
[9]; rate 0.0313 kg/ha
  Herbicidal rating GALAP: 0.0
[9]; rate 0.0625 kg/ha
  Herbicidal rating GALAP: 2.0
[9]; rate 0.1250 kg/ha
  Herbicidal rating GALAP: 4.0
[10]; rate 0.0156 kg/ha
  Herbicidal rating GLXMAW: 5.0
[10]; rate 0.0313 kg/ha
  Herbicidal rating GLXMAW: 6.0
[10]; rate 0.0625 kg/ha
  Herbicidal rating GLXMAW: 7.0
[10]; rate 0.1250 kg/ha
  Herbicidal rating GLXMAW: 7.0
[11]; 0.0156 kg/ha
  Preemergence herbicidal rating CASOB: 0.0
[11]; 0.0313 kg/ha
  Preemergence herbicidal rating CASOB: 0.0
[11]; 0.0625 kg/ha
  Preemergence herbicidal rating CASOB: 2.0
[11]; 0.1250 kg/ha
  Preemergence herbicidal rating CASOB: 1.0
[11]; 0.2500 kg/ha
  Preemergence herbicidal rating CASOB: 7.0
[11]; 0.5000 kg/ha
  Preemergence herbicidal rating CASOB: 9.0
[12]; 0.0156 kg/ha
  Preemergence herbicidal rating GALAP: 0.0
[12]; 0.0313 kg/ha
  Preemergence herbicidal rating GALAP: 0.0
[12]; 0.0625 kg/ha
  Preemergence herbicidal rating GALAP: 0.0
[12]; 0.1250 kg/ha
  Preemergence herbicidal rating GALAP: 0.0
[12]; 0.2500 kg/ha
  Preemergence herbicidal rating GALAP: 7.0
[12]; 0.5000 kg/ha
  Preemergence herbicidal rating GALAP: 7.0
[13]; 0.0313 kg/ha
  herbicidal effect rating, SAGPY: 0.0
[13]; 0.0625 kg/ha
  herbicidal effect rating, SAGPY: 2.0
[13]; 0.1250 kg/ha
  herbicidal effect rating, SAGPY: 5.0
[13]; 0.2500 kg/ha
  herbicidal effect rating, SAGPY: 8.0
[14]; rate 0.0156 kg/ha
  Herbicidal rating SETVI: 0.0
[14]; rate 0.0313 kg/ha
  Herbicidal rating SETVI: 6.0
[14]; rate 0.0625 kg/ha
  Herbicidal rating SETVI: 9.0
[14]; rate 0.1250 kg/ha
  Herbicidal rating SETVI: 9.0

Source: patent US20020137929A1, “1 - (3-heterocyclylphenyl) isothiourea, -isourea, -guanidine and -amidine herbicidal agents” (Intellectual Property Department, BASF Aktiengesellschaft, priority 1998, published 2002)
